These results are taken from patent US5744476A, “Dopamine D1 agonists for the treatment of dementia” (Interneuron Pharmaceuticals, Inc., priority 1994, dated 1998).

Experiment [1] relates to behavioral effects previously associated with D2 antagonists. Particulars: in vivo; cited from earlier work.
Experiment [2] relates to acetylcholine release in the frontal cortex. Put plainly: In vivo microdialysis, frontal cortex ACh release. Particulars: low dose in combination with DHX; listed as SCH 23390. On the set-up: species or system Male Sprague-Dawley rats. From the text:
The in vivo microdialysis technique is a method for evaluating the effects of drugs on brain neurotransmitter systems by monitoring the extracellular concentration of neurotransmitters and metabolites in awake freely-moving animals. Probes are implanted directly into the brain of rats and serve to continuously sample the extracellular fluid in the vicinity of the probe. Samples containing the dialyzed extracellular fluid are collected at the outlet of the perfusion system and analyzed for content of brain neurotransmitters and metabolites by high-performance liquid chromatography coupled with electrochemical detection (HPLC-EC). […]
The probe was perfused continuously with artificial CSF (composition in Mm: 121 NaCl, 3.5 KCl, 1.2 CaCl2, 1.2 MgCl2, 1.0 NaH2 PO4, 25 NaHCO3, and 0.001 neostigmine) at a flow rate of 1.5 ul/min. […] A 20 ul aliquot was analyzed immediately for acetylcholine (ACh) content by high-performance liquid chromatography with electrochemical detection (HPLC-EC) (see below for details). […]
DHX and SKF 81297, another D1 agonist (Andersen et al., Eur J Pharmacol 188:335, 1990), were administered ip after a stable baseline of ACh release was established in each animal. […] The effects of DHX on ACh release were evaluated in two brain regions associated with cognition (striatum, frontal cortex). […]

In another experiment the test system is striatal acetylcholine. Briefly: In vivo microdialysis, striatal ACh release. Particulars: low dose in combination with DHX. On the set-up: species or system Male Sprague-Dawley rats. From the text: The in vivo microdialysis technique is a method for evaluating the effects of drugs on brain neurotransmitter systems by monitoring the extracellular concentration of neurotransmitters and metabolites in awake freely-moving animals. Probes are implanted directly into the brain of rats and serve to continuously sample the extracellular fluid in the vicinity of the probe. Samples containing the dialyzed extracellular fluid are collected at the outlet of the perfusion system and analyzed for content of brain neurotransmitters and metabolites by high-performance liquid chromatography coupled with electrochemical detection (HPLC-EC).
Male Sprague-Dawley rats weighing 250-350 g were group housed (n=3 per cage) in a temperature-controlled room (23±2° C.) on a 14/10 hr light cycle with free access to food and water. After the surgical procedure, animals were placed in individual cages.
The surgical procedure involved the implantation and fixation of a probe holder/guide cannula to the skull of anesthetized rats. The guide cannula was the attachment site for the rigid concentric microdialysis probes which were implanted into the awake, fully-recovered rat at the onset of the experiment. […] For placement of the guide cannulae, rats were anesthetized with ketamine:xylazine (87:13 mg/kg), shaved and placed in a stereotaxic frame (Narashige Instruments). An incision was made to expose the skull and a small hole was drilled to expose the dura mater for placement of the guide. Guide cannulae were implanted in the striatum according to the following stereotaxic coordinates with reference to bregma: AP -+1.5 mm, L -+2.6 mm and V to dura -2.5 mm (Paxinos and Watson, The rat brain in stereotaxic coordinates, 2nd. ed., Academic Press, London, 1986). The microdialysis probe extended 3.0 mm beyond the tip of the guide cannula which yielded a final ventral placement of 5.5 mm below the dura. The coordinates for placement of the guide into frontal cortex were: AP -+3.0 mm, L -+2.8 mm and V to dura 0 mm, with the probe extending 3.0 mm below the dura. Guide cannulae were fixed to the skull with dental acrylic and anchor screws and a dummy cannula was inserted into each guide for the recovery period. Animals were returned to their home cage and allowed to recover from surgery for 24-48 hrs.
For each experiment, the dialysis probe was connected to a microinfusion pump (CMA-100; Bioanalytical Systems (BAS); W. Lafayette, Ind.) equipped with a liquid switch (CMA-110; BAS) via low dead volume fused-silica tubing (I.D.=75 um; O.D.=150 um). At the time of experiment, the dummy cannula was removed and the probe was inserted through the guide into the conscious animal under light restraint.
The probe was perfused continuously with artificial CSF (composition in Mm: 121 NaCl, 3.5 KCl, 1.2 CaCl2, 1.2 MgCl2, 1.0 NaH2 PO4, 25 NaHCO3, and 0.001 neostigmine) at a flow rate of 1.5 ul/min. Dialysate samples were collected every 20 min (total sample volume=30 μl). A 20 ul aliquot was analyzed immediately for acetylcholine (ACh) content by high-performance liquid chromatography with electrochemical detection (HPLC-EC) (see below for details). A baseline period of at least one hour was allowed prior to invoking any experimental manipulations. […] Sample collection proceeded for a minimum of 3 hrs following drug administration. Upon completion of the experiment, animals were sacrificed by decapitation and brains examined grossly to verify probe placement.
DHX and SKF 81297, another D1 agonist (Andersen et al., Eur J Pharmacol 188:335, 1990), were administered ip after a stable baseline of ACh release was established in each animal. […] The effects of DHX on ACh release were evaluated in two brain regions associated with cognition (striatum, frontal cortex).

Another experiment relates to cortical ACh release. The following applies: in vivo; cited from earlier work.
The test system of experiment [3] is CADs due to lesions of the medial projection of the basal forebrain to the cortex. Particulars: cited from earlier work.
Another experiment deals with striatal ACh output. Particulars: 0.3 mg/kg; cited from earlier work.

Structures are written as SMILES. “Also recorded” adds a separate entry of the source.

In the case of `CN1CCc2cc(Cl)c(O)cc2[C@@H](c2ccccc2)C1` [SCH23390], the behavioral effects result in experiment [1] is reported as “mimic some of the behavioral effects previously associated with D2 antagonists”. For the same compound, the “stimulatory effect of DHX on ACh release in the frontal cortex (blockade)” value in experiment [2] is on record as “completely block the stimulatory effect of administering DHX on acetylcholine release in the frontal cortex; also recorded: sensitive to antagonism by SCH 23390”. Further, the figures for the “stimulatory effect of DHX on striatal ACh release (blockade)” value in the experiment on striatal acetylcholine and with striatal acetylcholine (listed as SCH 23390) were “completely block the stimulatory effect of DHX on striatal ACh release” and “completely block the stimulatory effect of administering DHX on striatal acetylcholine release”, respectively. The “D1 agonist-induced increase in cortical ACh release (blockade)” value in the experiment on cortical ACh release is “blocked selectively”. Besides, the “choice accuracy deficits due to lesions” value in experiment [3] was “reversed CADs due to lesions of the medial projection of the basal forebrain to the cortex”. Moreover, the “effect of D1 agonist on striatal ACh output (blockade)” value with striatal ACh output was “blocked”.
